Laboratory results reported in patent publication US9492467B2, “Rapid-acting insulin formulation comprising an oligosaccharide” (ADOCIA, priority 2011, dated 2016).
Where a name gives a salt, the structure may show the parent alone.

Experiments:
[1] = target: T1, insulin lispro (hexameric form R6) (Homo sapiens, UniProt P01308, K53P/P52K); test: State of association of insulin lispro by circular dichroism (CD signal at 251 nm); format: physicochemical; details: added to Humalog, FIG. 27
T1 construct: purchased Eli Lilly Humalog®
T1 sequence (P01308 25-54 P52K/K53P limits assumed): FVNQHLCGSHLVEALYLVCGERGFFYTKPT
T1 sequence (P01308 90-110 limits assumed): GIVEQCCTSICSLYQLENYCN
From the text: Circular dichroism makes it possible to study the secondary and quaternary structure of insulin. The insulin monomers organize into dimers and hexamers. […] There are two hexameric forms, form R6 and form T6. […] Loss of the CD signal at 251 nm is connected with destabilization of the hexamer (and therefore the first sign of transformation of the hexamer to dimer).

[2] = target: human insulin (hexameric form) (Homo sapiens, UniProt P01308); test: State of association of human insulin by circular dichroism (CD signal at 276 nm); format: physicochemical; details: absence of m-cresol, FIG. 28
human insulin (hexameric form), sequence (P01308 25-54 limits assumed): as the sequence (P01308 25-54 P52K/K53P limits assumed) above, with K28P, P29K counted along it
From the text: Loss of the CD signal at 276 nm is therefore characteristic of destabilization of the hexamer to dimers or monomers.

[3] = pH; cited from earlier work
humans = details: injected subcutaneously; cited from earlier work
[4] = form of hexamers, 4° C.; cited from earlier work

## O=C(O)CN(CCN(CC(=O)O)CC(=O)O)CC(=O)O [EDTA, reference compound]
[1]
  effect on the CD signal at 251 nm / R6 form of insulin lispro: completely destructures the R6 form of insulin lispro
[2]
  effect on the hexameric structure of human insulin (CD signal at 276 nm): complete dissociation of the hexamer to dimers

## O=C(O)CC(O)(CC(=O)O)C(=O)O [citrate, sodium citrate]
[1]
  effect on the CD signal at 251 nm / R6 form of insulin lispro: almost no effect

## Insulin lispro: rapid-acting insulin analog, active of Humalog®
[3]
  isoelectric point: 5.3

## human insulin: insulin obtained by synthesis or recombination whose peptide sequence is the sequence of human insulin
humans
  hypoglycemic effect after: 60 min
[4]
  stable for: ~2 years
